# In patent EP0721336B1, “BENZAZOLE COMPOUNDS FOR USE IN THERAPY” (CANCER RESEARCH CAMPAIGN TECHNOLOGY LIMITED, priority 1993, dated 1995):
# Like-named read-outs stand apart in the source and are kept apart here. Marks after values point to notes of the source that are not given here.
# Key:
# MCF-7 mammary carcinoma [1] = assay: In vivo activity against MCF-7 tumour implanted s.c.; conditions: i.p., 120 mg/kg/day, qd 6, 13, 20
# A2780 ovarian carcinoma = assay: In vitro cytotoxicity assay; assay type: cell-based, human
# Excerpt: (§1) This is illustrated in Tables 1 and 2 at the end of the present description which show in vitro test results obtained in various sets of experiments for the cytotoxic activity of this compound CJM 126 against a range of human tumour cell lines, expressed in terms of IC50 values (concentration or dosage required to reduce cell growth or proliferation by 50%) calculated from dose-effect curves plotted for cultures of the cells in question.
# (§2) In carrying out the above in vitro studies, the method used for conducting the cytotoxicity assays was generally substantially as follows: • Cells were maintained in a continuous logarithmic culture in Dulbecco's medium supplemented with 10% fetal calf serum and penicillin (100 IU/ml) and streptomycin (100 µg/ml). The cells were mildly trypsinized for passage and for use in assays. On day zero, 100µl of trypsinized tumour cells (1 x 10^4/ml) were plated in the wells of 96-well flat-bottom microtiter plates. […] On day two 50µl of the highest drug concentration was added to the wells of column 12 and from there serially diluted 3-fold to column 1 by serial transfer of 50µl using an 8-channel micropipette. The final volume of column 1 was adjusted to 100µl. No additions were made to the wells of rows A and B, which served as controls. The plates were further incubated for 5 days at 37°C and 5% CO2 in air. Each compound was tested in duplicate. • On day 7 the test was terminated by the addition of 100µl saline containing 0.002% w/v propidium iodide (Sigma), 0.3% drawing ink (Staedtler "Marsmatic 745" - Trade Mark) and 0.5% Triton X-100. The plates were kept at 4°C overnight before reading on an inverted microscope equipped with an automated scanning stage. Fluorescence intensity was measured in arbitrary units by a photomultiplier. An HP-87 computer controlled the movement of the stage and also collected and processed the data from the multiplier. • For each compound tested a dose-response curve was obtained and the IC50 value (the drug concentration at 50% inhibition of cell growth) was calculated.
# [2] = test system: MDA 468 mammary (ER-/EGFR+); assay: In vitro cytotoxicity assay; assay type: cell-based, human; conditions: Homo sapiens
# Excerpt: as §1, §2
# EGFR tyrosine kinase = EGFR tyrosine kinase (Homo sapiens, UniProt P00533); assay: Western blot analyses with anti-phosphotyrosine primary antibody; assay type: cell-based; conditions: unstimulated or EGF stimulated
# MCF-7 mammary carcinoma [3] = conditions: mouse, in vivo, ip, 120 mg/kg
# [4] = test system: MCF-7 mammary carcinoma cells; assay: In vitro cytotoxicity assay (cell growth, propidium iodide fluorescence); assay type: cell-based, human; conditions: for IC50: Homo sapiens; for effect on cell growth: later series of experiments
# Excerpt: as §1, §2
# P388 cells = assay: In vitro cytotoxicity assay; assay type: cell-based; conditions: Mus musculus
# Method: as §2, with “An HP-87 computer controlled the movement of the stage and also collected and processed the data from the multiplier. • For each compound tested a dose-response curve was obtained and the IC50 value (the drug concentration at 50% inhibition of cell growth) was calculated.” left out
# [5] = test system: P388R8/22 (multidrug resistant) cells; assay: In vitro cytotoxicity assay; assay type: cell-based
# Method: as §2, with “An HP-87 computer controlled the movement of the stage and also collected and processed the data from the multiplier. • For each compound tested a dose-response curve was obtained and the IC50 value (the drug concentration at 50% inhibition of cell growth) was calculated.” left out
# [6] = test system: NCI (National Cancer Institute, U.S.A.) panel of human tumour cell lines; assay: NCI tumour cell line panel test; assay type: cell-based; conditions: panel contains no breast cancer cell lines
# MCF 7-ADR mammary = assay: In vitro cytotoxicity and growth stimulation assay; assay type: cell-based, human
# Excerpt: as §1, §2
# [7] = test system: human MDA 468 xenograft tumours; assay: In vivo activity against MDA 468 xenograft; design: species or system nude mice
# Method: The effect of CJM 126 (0.1, 0.01 and 0.001mg/kg) has also been investigated in nude mice bearing human MDA 468 xenograft tumours.
# EGFR = EGFR (Homo sapiens, UniProt P00533); assay: Displacement of iodinated EGF from EGFR; assay type: binding; conditions: 1µM, 10µM and 100µM
# [8] = test system: BO (T61) human mammary carcinomas; assay: In vivo activity against implanted BO tumour; design: species or system NMRI-nu/nu female mice; conditions: i.p., qd 27,34,41
# Sequence of EGFR (P00533 25-1210): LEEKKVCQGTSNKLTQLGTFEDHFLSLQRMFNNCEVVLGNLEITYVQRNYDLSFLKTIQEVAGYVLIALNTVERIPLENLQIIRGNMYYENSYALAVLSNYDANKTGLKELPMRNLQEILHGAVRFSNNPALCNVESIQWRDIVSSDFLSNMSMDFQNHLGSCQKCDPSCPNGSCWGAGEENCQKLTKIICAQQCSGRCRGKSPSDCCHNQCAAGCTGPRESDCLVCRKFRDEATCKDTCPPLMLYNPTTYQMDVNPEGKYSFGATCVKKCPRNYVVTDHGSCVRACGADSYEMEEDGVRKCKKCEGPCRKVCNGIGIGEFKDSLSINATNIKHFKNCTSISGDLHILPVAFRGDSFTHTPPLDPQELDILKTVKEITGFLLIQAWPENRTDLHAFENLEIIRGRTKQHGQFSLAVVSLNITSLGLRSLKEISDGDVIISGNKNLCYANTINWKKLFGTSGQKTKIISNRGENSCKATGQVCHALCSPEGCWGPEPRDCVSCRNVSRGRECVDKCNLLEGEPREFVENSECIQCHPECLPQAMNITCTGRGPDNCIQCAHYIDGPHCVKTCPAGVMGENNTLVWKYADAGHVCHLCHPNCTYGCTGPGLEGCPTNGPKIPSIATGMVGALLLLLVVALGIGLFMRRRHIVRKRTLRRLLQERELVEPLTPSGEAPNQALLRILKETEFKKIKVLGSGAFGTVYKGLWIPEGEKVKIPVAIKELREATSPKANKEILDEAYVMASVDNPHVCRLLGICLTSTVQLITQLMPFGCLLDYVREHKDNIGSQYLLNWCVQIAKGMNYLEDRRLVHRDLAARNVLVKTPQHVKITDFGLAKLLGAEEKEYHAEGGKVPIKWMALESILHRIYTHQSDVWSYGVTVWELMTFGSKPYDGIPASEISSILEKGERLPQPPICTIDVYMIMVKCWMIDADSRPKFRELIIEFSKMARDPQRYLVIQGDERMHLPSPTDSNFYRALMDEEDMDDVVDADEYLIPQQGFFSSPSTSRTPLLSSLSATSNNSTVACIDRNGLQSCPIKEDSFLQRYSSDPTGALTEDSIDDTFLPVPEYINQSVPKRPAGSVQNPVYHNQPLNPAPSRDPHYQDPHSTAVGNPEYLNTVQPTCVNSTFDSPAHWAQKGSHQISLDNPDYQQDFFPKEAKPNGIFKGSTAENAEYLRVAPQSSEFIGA
# Sequence of EGFR tyrosine kinase (P00533 25-1210): as above
structure (smiles),measurement,setting,value
"Nc1ccc(-c2nc3ccccc3s2)cc1 [CJM 126, 2-(4-aminophenyl)benzothiazole]",Relative tumour volume (T/C%),MCF-7 mammary carcinoma [1]; d9,84%
same,Relative tumour volume (T/C%),MCF-7 mammary carcinoma [1]; d13,47* %
same,Relative tumour volume (T/C%),MCF-7 mammary carcinoma [1]; d20,38* %
same,Relative tumour volume (T/C%),MCF-7 mammary carcinoma [1]; d27,27* %
same,Relative tumour volume (T/C%),MCF-7 mammary carcinoma [1]; d35,27* %
same,Relative tumour volume (T/C%),MCF-7 mammary carcinoma [1]; d43,43* %
same,BWC (%),MCF-7 mammary carcinoma [1]; relative to saline treated animals,-13%
same,IC50,A2780 ovarian carcinoma; 2nd series of experiments,43000 nM
same,IC50,"A2780 ovarian carcinoma; Homo sapiens, A2780, 1st series of experiments",8.83 µg/mL
same,IC50,"A2780 ovarian carcinoma; Homo sapiens, A2780, 2nd series of experiments",39000 nM
same,IC50,"[2]; MDA 468, read-out: estimated IC50",~1.6 nM
same,IC50,"[2]; column A, read-out: MDA 468 A IC50 at sub-micromolar concentrations",1.6 nM
same,IC50,"[2]; 2nd series of experiments, read-out: IC50",1.6 nM
same,inhibition of EGFR tyrosine kinase activity,EGFR tyrosine kinase,no apparent inhibition
same,signs of toxicity,MCF-7 mammary carcinoma [3],no signs of severe toxicity
same,IC50,"[4]; MCF7, 1st series of experiments, initial decrease in cell growth, read-out: IC50",~0.002 µg/mL
same,IC50,"[4]; MCF7, MCF 7-wt, phase 1, after drug removal, read-out: observed IC50 after drug removal",2.18 nM
same,IC50,"[4]; MCF7, MCF 7-wt, read-out: estimated IC50",~2.9 nM
same,IC50,"[4]; MCF7, first series of experiments, second decrease at even greater doses, read-out: IC50 of second decrease (biphasic dose response)",~2 µg/mL
same,IC50,"[4]; MCF-wt, column A, read-out: MCF-wt A IC50 at sub-micromolar concentrations",3 nM
same,inhibition of growth,"[4]; MCF 7-wt, 1% FCS, presence of EGF, all concentrations 1nM-10µM",greater than 85%
same,times more sensitive than other human cell lines tested,"[4]; first series of experiments, Table 1",about 3000 times
same,estimated IC50,[4]; in the presence of 1% FCS,picomolar range
same,proliferation of colonies (2nd phase),"[4]; in the presence of 1% FCS, 3, 10, 30µM",no proliferation of colonies
same,effect on cell growth,[4]; 30nM and 100nM,maximum growth inhibition
same,effect on cell growth,"[4]; exposure to 1µM, 3µM and 10µM",loss of growth arrest
same,IC50,P388 cells,27000 nM
same,IC50,[5],52000 nM
same,toxicity in panel,[6],essentially non-toxic
same,stimulation,"MCF 7-ADR mammary; 2nd series of experiments, concentration giving stimulation",stimulation > 1µM
same,effect on cell growth,"MCF 7-ADR mammary; 3 and 10µM, seeding density 2.5 x 10^2 cells per well",induced proliferation
same,Tumour weight (g),[7]; 0.1mg/kg daily,.30 + .07 g
same,Cross section tumour area (mm),"[7]; 0.1mg/kg daily, Day 5",97.75 ± 9.55 mm
same,Cross section tumour area (mm),"[7]; 0.1mg/kg daily, Day 12",71.07 ± 7.2 mm
same,Cross section tumour area (mm),"[7]; 0.1mg/kg daily, Day 15",82.17 + 1058 mm
same,Cross section tumour area (mm),"[7]; 0.1mg/kg daily, Day 19",88.84 ± 3.69 mm
same,Cross section tumour area (mm),"[7]; 0.1mg/kg daily, Day 22",105.66 ± 5.49 mm
same,Cross section tumour area (mm),"[7]; 0.1mg/kg daily, Day 26",124.55 ± 7.90 mm
same,Cross section tumour area (mm),"[7]; 0.1mg/kg daily, Day 29",182.15 ± 14.79 mm
same,Cross section tumour area (mm),"[7]; 0.1mg/kg daily, Day 32",196.66 ± 18.65 mm
same,Tumour weight (g),[7]; .001mg/kg daily,.19 + .08 g
same,Cross section tumour area (mm),"[7]; .001mg/kg daily, Day 5",85.54 ± 19.44 mm
same,Cross section tumour area (mm),"[7]; .001mg/kg daily, Day 12",52.93 ± 2.65 mm
same,Cross section tumour area (mm),"[7]; .001mg/kg daily, Day 15",67.81 ± 12.92 mm
same,Cross section tumour area (mm),"[7]; .001mg/kg daily, Day 19",64.8 ± 17.35 mm
same,Cross section tumour area (mm),"[7]; .001mg/kg daily, Day 22",75.12 ± 20.05 mm
same,Cross section tumour area (mm),"[7]; .001mg/kg daily, Day 26",81.53 ± 26.16 mm
same,Cross section tumour area (mm),"[7]; .001mg/kg daily, Day 29",114.65 + 3457 mm
same,Cross section tumour area (mm),"[7]; .001mg/kg daily, Day 32",129.06 ± 32.08 mm
same,Tumour weight (g),[7]; .01mg/kg daily,.29 + .15 g
same,Cross section tumour area (mm),"[7]; .01mg/kg daily, Day 5",120.78 ± 5.83 mm
same,Cross section tumour area (mm),"[7]; .01mg/kg daily, Day 12",71.65 ± 11.67 mm
same,Cross section tumour area (mm),"[7]; .01mg/kg daily, Day 15",78.21 ± 6.69 mm
same,Cross section tumour area (mm),"[7]; .01mg/kg daily, Day 19",98.03 ± 33.51 mm
same,Cross section tumour area (mm),"[7]; .01mg/kg daily, Day 22",117.02 ± 42.1 mm
same,Cross section tumour area (mm),"[7]; .01mg/kg daily, Day 26",131.58 ± 23.41 mm
same,Cross section tumour area (mm),"[7]; .01mg/kg daily, Day 29",164.90 ± 37.18 mm
same,Cross section tumour area (mm),"[7]; .01mg/kg daily, Day 32",191.68 ± 45.65 mm
same,displacement of iodinated EGF from EGFR,EGFR,no ability to displace
same,BWC,[8]; 1 mg/kg/day,-5
same,Relative tumour volume (T/C%),"[8]; 1 mg/kg/day, d33",173%
same,Relative tumour volume (T/C%),"[8]; 1 mg/kg/day, d41",72%
same,Relative tumour volume (T/C%),"[8]; 1 mg/kg/day, d47",25* %
same,Relative tumour volume (T/C%),"[8]; 1 mg/kg/day, d55",67%
same,Relative tumour volume (T/C%),"[8]; 1 mg/kg/day, d61",41* %
same,BWC,[8]; 10 mg/kg/day,-4
same,Relative tumour volume (T/C%),"[8]; 10 mg/kg/day, d33",107%
same,Relative tumour volume (T/C%),"[8]; 10 mg/kg/day, d41",74%
same,Relative tumour volume (T/C%),"[8]; 10 mg/kg/day, d47",55%
same,Relative tumour volume (T/C%),"[8]; 10 mg/kg/day, d55",70%
same,Relative tumour volume (T/C%),"[8]; 10 mg/kg/day, d61",52%
same,BWC,[8]; 100 mg/kg/day,-7
same,Relative tumour volume (T/C%),"[8]; 100 mg/kg/day, d33",137%
same,Relative tumour volume (T/C%),"[8]; 100 mg/kg/day, d41",77%
same,Relative tumour volume (T/C%),"[8]; 100 mg/kg/day, d47",87%
same,Relative tumour volume (T/C%),"[8]; 100 mg/kg/day, d55",68%
same,Relative tumour volume (T/C%),"[8]; 100 mg/kg/day, d61",52%
